Assay results as given in ChEMBL document CHEMBL2385043, “Recent advances in malaria drug discovery” (Bioorg Med Chem Lett, 2013).
Each block holds one compound with its values, some of them ahead of it.

Experiments:
Lysine--tRNA ligase = Lysine--tRNA ligase (Homo sapiens, UniProt Q15046); test: Inhibition of human recombinant cytoplasmic lysyl-tRNA synthetase
Plasmodium falciparum [1] = test: Antiplasmodial activity against liver stage of drug-sensitive Plasmodium falciparum 3D7; format: functional, organism-based; settings: 3D7, Liver
Plasmodium falciparum [2] = test: Antiplasmodial activity against liver stage of drug-sensitive Plasmodium falciparum D10; format: functional, organism-based
[3] = Half life in Sprague-Dawley rat at 3 mg/kg, iv; format: ADME, organism-based; parameters: dose 3 mg/kg, route intravenous; settings: in vivo
Plasmodium yoelii yoelii = test: Antimalarial activity against Plasmodium yoelii yoelii infected in mouse; format: functional
Plasmodium falciparum [4] = test: Antiplasmodial activity against Plasmodium falciparum by SYBR Green staining-based fluorescence assay; format: functional, organism-based
[5] = Oral bioavailability in rat; format: ADME, organism-based; settings: in vivo
[6] = Oral bioavailability in mouse; format: ADME, organism-based; settings: in vivo
Plasmodium falciparum [7] = test: Antiplasmodial activity against drug-sensitive Plasmodium falciparum 3D7; format: functional, organism-based
Plasmodium berghei [8] = test: Antimalarial activity against Plasmodium berghei infected in po dosed mouse; format: functional
[9] = Half life in po dosed rat; settings: in vivo
Plasmodium berghei [10] = test: Antimalarial activity against Plasmodium berghei str. ANKA infected in po dosed mouse assessed as reduction in parasitemia; format: functional
[11] = Half life in human; format: ADME, organism-based; settings: in vivo
Plasmodium falciparum [12] = test: Antiplasmodial activity against erythrocytic stage of multidrug-resistant Plasmodium falciparum W2; format: functional, organism-based
Plasmodium [13] = test: Antimalarial activity against Plasmodium infected in ip dosed mouse; format: functional
Plasmodium [14] = test: Antiplasmodial activity against Plasmodium; format: functional
Plasmodium vinckei [15] = test: Antimalarial activity against Plasmodium vinckei infected in ip dosed Swiss mouse at 5 to 10% parasitemia; format: functional
Plasmodium vinckei [16] = test: Antimalarial activity against Plasmodium vinckei infected in po dosed Swiss mouse; format: functional
Plasmodium vinckei [17] = test: Antimalarial activity against Plasmodium vinckei infected in ip dosed Swiss mouse at 0.5 to 1% parasitemia; format: functional
Plasmodium falciparum [18] = test: Antiplasmodial activity against erythrocytic stage of multidrug-resistant Plasmodium falciparum K1; format: functional, organism-based
Plasmodium berghei [19] = test: Antimalarial activity against Plasmodium berghei ANKA infected in mouse assessed as reduction in parasitemia at 40 mg/kg, ip relative to control; format: functional; settings: route intraperitoneal
Plasmodium falciparum [20] = test: Antimalarial activity against Plasmodium falciparum infected in po dosed mouse assessed as decrease in parasitemia administered on day 1 postinfection measured on day 3 by FACS analysis; format: functional
Plasmodium falciparum [21] = test: Antiplasmodial activity against chloroquine-resistant Plasmodium falciparum K1 infected in human erythrocytes after 48 hrs by [3H]-hypoxanthine incorporation assay; format: functional, organism-based
Plasmodium falciparum [22] = test: Antiplasmodial activity against wild type Plasmodium falciparum TM4 by [3H]-hypoxanthine incorporation assay; settings: TM4, 3 h
Plasmodium falciparum [23] = test: Antiplasmodial activity against Plasmodium falciparum VS/1 expressing DHFR quadruple mutation by [3H]-hypoxanthine incorporation assay; format: functional, organism-based

Lysine--tRNA ligase, sequence (Q15046 whole entry): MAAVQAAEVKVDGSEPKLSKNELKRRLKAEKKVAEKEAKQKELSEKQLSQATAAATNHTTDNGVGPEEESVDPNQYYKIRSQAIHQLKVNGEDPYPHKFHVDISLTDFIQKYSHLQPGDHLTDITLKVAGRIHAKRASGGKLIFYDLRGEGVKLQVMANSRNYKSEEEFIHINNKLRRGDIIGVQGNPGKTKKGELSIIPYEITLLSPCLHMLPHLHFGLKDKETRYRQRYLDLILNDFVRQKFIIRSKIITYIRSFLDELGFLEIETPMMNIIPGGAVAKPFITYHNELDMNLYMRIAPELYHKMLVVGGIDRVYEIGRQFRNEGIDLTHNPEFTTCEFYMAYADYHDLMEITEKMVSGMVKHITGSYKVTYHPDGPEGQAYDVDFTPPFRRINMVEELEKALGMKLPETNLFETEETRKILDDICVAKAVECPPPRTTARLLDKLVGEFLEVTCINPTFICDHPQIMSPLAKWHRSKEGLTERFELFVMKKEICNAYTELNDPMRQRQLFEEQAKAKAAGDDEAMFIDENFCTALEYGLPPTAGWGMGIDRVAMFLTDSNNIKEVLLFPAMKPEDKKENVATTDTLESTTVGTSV

IC50 (Lysine--tRNA ligase): > 20000 nM
EC50 (Plasmodium falciparum [1]): 45 nM
EC50 (Plasmodium falciparum [2]): 90 nM
Compound: C[C@H]1CCC[C@H](C[C@H]2Cc3cc(O)cc(O)c3C(=O)O2)O1 [CLADOSPORIN]

Compound: CC(C)(N)CNC(=O)C[C@H]1CC[C@]2(CC1)OO[C@]1(O2)C2CC3CC(C2)CC1C3 [OZ277]
half-life [3]: 1 h

Compound: C[C@@]12OC(=O)[C@]1([C@@H](O)[C@@H]1C=CCCC1)NC(=O)[C@@H]2CCCl [MARIZOMIB]
ED50 (Plasmodium yoelii yoelii): 0.25 mg/kg/day
EC50 (Plasmodium falciparum [4]): 11 nM

Compound: CN1CCN(C2CCN(C(=O)CC3CCC4(CC3)OOC3(OO4)C4CC5CC(C4)CC3C5)CC2)CC1.Cc1ccc(S(=O)(=O)O)cc1 (stereo not drawn)
bioavailability [5]: 38%
bioavailability [6]: 42%

Compound: C[C@H]1Cc2c([nH]c3cc(Cl)c(F)cc23)[C@@]2(N1)C(=O)Nc1ccc(Cl)cc12 [CIPARGAMIN]
bioavailability [5]: 100%
EC50 (Plasmodium falciparum [7]): 0.7 nM
ED50 (Plasmodium berghei [8]): 1.2 mg/kg
half-life [9]: 27 h

EC50 (Plasmodium falciparum [7]): 11 nM
Compound: CCN(CC)Cc1cc(Nc2ccnc3cc(Cl)ccc23)ccc1O

Compound: O[C@@H](c1cc(C(F)(F)F)nc2c(C(F)(F)F)cccc12)[C@H]1CCCCN1 (relative stereo) [(S,R)-MEFLOQUINE]
ED50 (Plasmodium berghei [10]): 3.3 mg/kg
half-life [11]: 336 h
EC50 (Plasmodium falciparum [12]): 7 nM

half-life [11]: 1 h
Compound: CO[C@H]1O[C@@H]2O[C@@]3(C)CC[C@H]4[C@H](C)CC[C@@H]([C@H]1C)[C@@]24OO3

EC50 (Plasmodium [14]): 2 nM
bioavailability [6]: 2%
Compound: Cc1c(CCO)sc[n+]1CCCCCCCCCCCC[n+]1csc(CCO)c1C.[I-].[I-]
ED50 (Plasmodium [13]): 0.2 mg/kg/day
ED50 (Plasmodium vinckei [15]): ≤ 0.5 mg/kg/day
ED50 (Plasmodium vinckei [16]): 13 mg/kg/day
ED50 (Plasmodium vinckei [17]): 1 mg/kg/day

Compound: CSc1ccc2nc(N(Cc3cccnc3)C(=O)c3ccc(C(C)(C)C)cc3)sc2c1
EC50 (Plasmodium falciparum [18]): 326 nM

EC50 (Plasmodium falciparum [7]): 100 nM
Compound: CC(C)(C)c1cc(C(=O)N2CCN(c3ncccc3C(F)(F)F)CC2)n(Cc2ccccc2)n1

half-life [11]: 1 h
Compound: C[C@H]1[C@@H](O)O[C@@H]2O[C@@]3(C)CC[C@H]4[C@H](C)CC[C@@H]1[C@@]24OO3 [ARTENIMOL]

EC50 (Plasmodium falciparum [7]): 75 nM
Compound: COc1cc2nc(N3CCCN(C)CC3)nc(NC3CCN(Cc4ccccc4)CC3)c2cc1OC
fold change (FC) (Plasmodium berghei [19]): 2

Compound: C[C@H]1[C@H](OC(=O)CCC(=O)O)O[C@@H]2O[C@@]3(C)CC[C@H]4[C@H](C)CC[C@@H]1[C@@]24OO3 [ARTESUNATE]
ED50 (Plasmodium falciparum [20]): 6.2 mg/kg/day
half-life [11]: 1 h
EC50 (Plasmodium falciparum [21]): 3.1 nM

Compound: CCc1nc(N)nc(N)c1-c1ccc(Cl)cc1 [PYRIMETHAMINE]
IC50 (Plasmodium falciparum [22]): 58 nM
IC50 (Plasmodium falciparum [23]): > 100000 nM
